In series [1] the test system is S. typhimurium TA1535 (umu D,C SOS gene, luminescence genes of pUCD620). Description: Luminescence assay with genes for luciferase and the enzyme producing its substrate, Example 6. To be noted: Table 2; response two times that without test substance; 30° C., 2 hours; S9 Mix where necessary.
In series [2] the test system is S. typhimurium TA1535/pSK1002 (umu D,C SOS gene, β-galactosidase expression). In words: Conventional colorimetric method (umu test, β-galactosidase activity), Comparative Example 4. As to conditions: Table 2; response two times that without test substance; 37° C., 2 hours; S9 Mix where necessary.
The test system is the same in series [3]. In words: Conventional colorimetric method (umu test, β-galactosidase activity), Comparative Example 3. As to conditions: Table 1; response two times that without test substance; 37° C., 2 hours; S9Mix where necessary.
In series [4] the test system is S. typhimurium TA1535 (umu D,C SOS gene, luciferase expression). As to conditions: for Minimum detectable concentration, Method of Present Invention: Table 1, response two times that without test substance, 37° C., 2 hours, S9Mix where necessary; for minimum detectable concentration, fold lower than conventional colorimetric method: first embodiment (luc) vs conventional method.

A short description of series [5]: Conventional colorimetric method (umu test, β-galactosidase activity), Comparative Example 3. To be noted: s. typhimurium ta1535/psk1002.
The next series is described as follows: in vitro. To be noted: s. typhimurium ta1535.

For the molecule `O=[N+]([O-])c1ccc2ccc3cccc4ccc1c2c34` [1-NP, 1-nitropyrene], the “Minimum detectable concentration, Method of Present Invention” value (“Minimum detectable concentration, Method” for short) is 0.05 µg/mL in series [1] and 0.03 µg/mL in series [4]. The “Minimum detectable concentration, Conventional Method” value in series [2] and in series [3] was 0.3 µg/mL in each case. Also, in series [4], the “minimum detectable concentration, fold lower than conventional colorimetric method” value was “about 10 times”.
As for `Nc1ccc2cc3ccccc3cc2c1` [2-AA, 2-aminoanthracene], the “Minimum detectable concentration, Method” value in series [1] is 0.02 µg/mL; in series [4] it was 0.04 µg/mL. The “Minimum detectable concentration, Conventional Method” value in series [2] and in series [3] was 0.1 µg/mL each time.
As for `O=[N+]([O-])c1cc[n+]([O-])c2ccccc12` [4NQO, 4-nitroquinoline 1-oxide], the “Minimum detectable concentration, Method” value is 0.008 µg/mL in series [1] and 0.01 µg/mL in series [4]. The “Minimum detectable concentration, Conventional Method” value in series [2] and in series [3] was 0.04 µg/mL throughout.
Take `NC(=O)C(=Cc1ccc([N+](=O)[O-])o1)c1ccco1` [AF-2, 2-(2-furyl)-3-(5-nitro-2-furyl)-acrylamide]: the “Minimum detectable concentration, Method” value in series [1] and in series [4] was 0.0005 µg/mL throughout. The “Minimum detectable concentration, Conventional Method” value in series [2] and in series [3] was 0.003 µg/mL each time. For the same molecule, the values for the maximal fold induction (in series [5]; in “in vitro”) were about 5 and about 15, respectively. Besides, in series [4] (first embodiment vs conventional colorimetric method), the “dynamic range (highest value of the ratio), expansion relative to conventional colorimetric method” value is given as “about 3 times”.
As to `c1ccc2c(c1)cc1ccc3cccc4ccc2c1c34` [Bap, benzo[a]pyrene], the “Minimum detectable concentration, Method” value was determined as 0.04 µg/mL in series [1] and 0.1 µg/mL in series [4]. For the same molecule, the “Minimum detectable concentration, Conventional Method” value in series [2] and in series [3] was 1 µg/mL in each case. Besides, the “minimum detectable concentration, fold lower than conventional colorimetric method” value in series [4] was “about 10 times”.

In general, maximal fold induction refers to the signal under treatment as a multiple of the control signal. Lower therefore signals little rise in signal.
